Test results taken from US4766108A, “Tyr-Arg-vasopressin antagonists” (Smith Kline Beckman Corporation, priority 1986, dated 1988).
Numbered stars: 1 amine (or outer) side, 2 acyl side, 3 side chain; on linkers, the order of the positions; unused ones are H or OH. Bridge positions count the residues as written; N and C are the ends. Square brackets hold non-standard residues; d marks the D form. Peptide text beside a SMILES is read from it. X1 = O=C(CC1(S[*:2])CCCCC1)[*:1]

What was measured:
[1] = biological target: T1, vasopressin receptors (V2 -receptors) in the porcine renal medullary membrane (Sus scrofa, UniProt P32307); test: [3H]-LVP binding, porcine renal medullary membrane (Kbind); conditions: affinity of ligand for receptor in porcine renal medullary membrane; from IC50 of [3H]-LVP binding, Kb = IC50/(1 + L/KD)
T1 construct: the porcine renal medullary membrane; It is derived from the equation for; from tissue; host or cells: porcine (hog) kidney medullary membranes
Procedure: (§1) V2 -antagonistic activity toward the natural anti-diuretic hormone (anti-ADH activity) is determined, in vitro, in the medullary tissue of hog or human kidneys and, in vivo, in the hydropenic rat. The in vitro assay procedures for vasopressin stimulated adenylate cyclase activation or vasopressin binding activity are described by F. Stassen et al., J. Pharmacology and Experimental Therapeutics, 223, 50-54 (1982). V1 -antagonistic activity is determined by procedures using the rat thoracic aortic tissue and plasma membranes of rat liver. These procedures are described in the noted Stassen publication and in a publication at the lst International Conference on Diuretics, Miami, Fla., March (1984). Oxytocin antagonism is determined as described by W. Sawyer et al., Endocrinology, 106 81 (1979). | ^a Kbind is a measure of the affinity of ligand for receptor in | the porcine renal medullary membrane. It is derived from the equation for | competitive inhibition Kb = IC50 /(1 + L/KD) where | IC50 is the concentration of the ligand for 50% inhibition of [^ | H]-LVP binding, L is the concentration of the ligand, and KD is the | dissociation constant of [ ^3 H]-LVP.

[2] = biological target: T2, V1 receptor, human liver membrane (Homo sapiens, UniProt P37288); test: Binding to human liver membrane (V1 receptor); conditions: read-out: Kbind human liver (V1 receptor)
T2 construct: from tissue; host or cells: human liver membranes
Procedure: as §1, with “(1979).” for “(1979). | ^a Kbind is a measure of the affinity of ligand for receptor in | the porcine renal medullary membrane. It is derived from the equation for | competitive inhibition Kb = IC50 /(1 + L/KD) where | IC50 is the concentration of the ligand for 50% inhibition of [^ | H]-LVP binding, L is the concentration of the ligand, and KD is the | dissociation constant of [ ^3 H]-LVP.”
^d Kbind relates to human liver membrane activity.

T1 sequence (P32307 whole entry): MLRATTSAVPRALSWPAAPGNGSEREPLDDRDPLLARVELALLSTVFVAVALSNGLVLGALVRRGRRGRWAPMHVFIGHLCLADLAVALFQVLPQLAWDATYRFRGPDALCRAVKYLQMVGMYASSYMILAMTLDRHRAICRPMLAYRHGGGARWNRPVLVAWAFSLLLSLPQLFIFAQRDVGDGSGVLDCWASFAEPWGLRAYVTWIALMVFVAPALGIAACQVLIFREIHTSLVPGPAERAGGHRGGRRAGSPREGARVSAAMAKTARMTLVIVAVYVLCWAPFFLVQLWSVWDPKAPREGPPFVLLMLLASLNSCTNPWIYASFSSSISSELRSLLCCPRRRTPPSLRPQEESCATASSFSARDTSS
T2 sequence (P37288 whole entry): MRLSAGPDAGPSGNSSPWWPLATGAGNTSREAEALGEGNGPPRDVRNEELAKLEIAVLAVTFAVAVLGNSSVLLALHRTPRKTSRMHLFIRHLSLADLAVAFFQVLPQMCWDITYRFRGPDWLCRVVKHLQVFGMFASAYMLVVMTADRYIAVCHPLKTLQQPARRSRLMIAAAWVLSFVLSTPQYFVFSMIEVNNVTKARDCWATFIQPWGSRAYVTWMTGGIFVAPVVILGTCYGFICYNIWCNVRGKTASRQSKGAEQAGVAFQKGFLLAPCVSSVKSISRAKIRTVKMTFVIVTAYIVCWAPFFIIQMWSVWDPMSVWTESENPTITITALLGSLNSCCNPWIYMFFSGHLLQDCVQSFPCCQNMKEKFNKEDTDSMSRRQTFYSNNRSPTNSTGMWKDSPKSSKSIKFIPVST

Ki [1] [nM] | Ki [2] [nM] | SMILES
14 |  | CCOc1ccc(C[C@H]2NC(=O)CC3(CCCCC3)SSC[C@@H](C(=O)N[C@@H](Cc3ccc(O)cc3)C(=O)N[C@@H](CCCNC(=N)N)C(N)=O)NC(=O)[C@H](CC(N)=O)NC(=O)[C@H](C(C)C)NC(=O)[C@H](Cc3ccccc3)NC2=O)cc1 [No. 1, [1-(β-mercapto-β,β-cyclopentamethylene-propionic acid)-2-(O-ethyl)-D-tyrosine-4-valine-7-tyrosine-8-arginine-desglycine]-vasopressin] ([dY](Et)FVNCYR-NH2; linker N-5 via X1)
23 | 1.8 | CCOc1ccc(C[C@H]2NC(=O)CC3(CCCCC3)SSC[C@@H](C(=O)N[C@@H](CCCNC(=N)N)C(=O)N[C@@H](Cc3ccc(O)cc3)C(N)=O)NC(=O)[C@H](CC(N)=O)NC(=O)[C@H](C(C)C)NC(=O)[C@H](Cc3ccccc3)NC2=O)cc1 [No. 2, [1-(β-mercapto-β,β-cyclopentamethylene-propionic acid)-2-(O-ethyl)-D-tyrosine-4-valine-7-arginine-8-tyrosine-9-desglycine]-vasopressin] ([dY](Et)FVNCRY-NH2; linker N-5 via X1)
2.7 |  | CCOc1ccc(C[C@H]2NC(=O)CC3(CCCCC3)SSC[C@@H](C(=O)N[C@@H](CCCNC(=N)N)C(=O)N[C@@H](CCCNC(=N)N)C(N)=O)NC(=O)[C@H](CC(N)=O)NC(=O)[C@H](C(C)C)NC(=O)[C@H](Cc3ccccc3)NC2=O)cc1 [compound 3] ([dY](Et)FVNCRR-NH2; linker N-5 via X1)
8.8 |  | CCOc1ccc(C[C@H]2NC(=O)CC3(CCCCC3)SSC[C@@H](C(=O)N[C@@H](CCCCN)C(=O)N[C@@H](CCCNC(=N)N)C(N)=O)NC(=O)[C@H](CC(N)=O)NC(=O)[C@H](C(C)C)NC(=O)[C@H](Cc3ccccc3)NC2=O)cc1 [compound 4] ([dY](Et)FVNCKR-NH2; linker N-5 via X1)
11 | 1.2 | CCOc1ccc(C[C@H]2NC(=O)CC3(CCCCC3)SSC[C@@H](C(=O)N[C@@H](CCCNC(=N)N)C(N)=O)NC(=O)[C@H](CC(N)=O)NC(=O)[C@H](C(C)C)NC(=O)[C@H](Cc3ccccc3)NC2=O)cc1 [compound 5] ([dY](Et)FVNCR-NH2; linker N-5 via X1)
